This passage reports Ki results from US10035805B2, “Tricyclic triazolic compounds” (LABORATORIOS DEL DR. ESTEVE S.A., priority 2014, dated 2018).

The Ki is a measure of affinity in units of concentration, obtained from inhibition or displacement.

Structures can show the parent of a compound that is named as a salt. A value given as a limit tells only on which side of the number the result lay.

The target of this test is T1, sigma-1 receptor (Cavia porcellus, UniProt Q60492).
T1 construct: Guinea pig brains were homogenized in 10 vols; (w/v) of Tris-HCl 50 mM 0.32 M sucrose; from tissue; host or cells: guinea pig brain membranes
T1 sequence (Q60492 whole entry): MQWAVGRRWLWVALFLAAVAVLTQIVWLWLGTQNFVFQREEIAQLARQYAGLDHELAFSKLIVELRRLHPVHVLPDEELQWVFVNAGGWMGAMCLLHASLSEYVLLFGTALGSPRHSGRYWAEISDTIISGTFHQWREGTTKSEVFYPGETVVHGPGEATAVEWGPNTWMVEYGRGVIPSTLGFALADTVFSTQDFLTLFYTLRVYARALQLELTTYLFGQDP
Put plainly: Sigma-1 receptor radioligand binding assay with [3H]-(+)-pentazocine in guinea pig brain membranes. The settings on record: radioligand [3H]-(+)-pentazocine at 5.0 nM, 150 min at 37° C., nonspecific binding with 1 μM haloperidol. On the procedure:
Brain membrane preparation and binding assays for the al-receptor were performed as described (DeHaven-Hudkins, D. L., L. C. Fleissner, and F. Y. Ford-Rice, 1992, Characterization of the binding of [^3H](+)pentazocine to a recognition sites in guinea pig brain, Eur. J. Pharmacol. 227, 371-378) with some modifications. Guinea pig brains were homogenized in 10 vols. (w/v) of Tris-HCl 50 mM 0.32 M sucrose, pH 7.4, with a Kinematica Polytron PT 3000 at 15000 r.p.m. for 30 s. The homogenate was centrifuged at 1000 g for 10 min at 4° C. and the supernatants collected and centrifuged again at 48000 g for 15 min at 4° C. The pellet was resuspended in 10 volumes of Tris-HCl buffer (50 mM, pH 7.4), incubated at 37° C. for 30 min, and centrifuged at 48000 g for 20 min at 4° C. Following this, the pellet was resuspended in fresh Tris-HCl buffer (50 mM, pH 7.4) and stored on ice until use.
The radioligand used was [^3H]-(+)-pentazocine at 5.0 nM and the final volume was 200 μl. The incubation was initiated with the addition of 100 μl of membrane at a final tissue concentration of approximately 5 mg tissue net weight/mL and the incubation time was 150 m. at 37° C. After incubation, the membranes were collected onto pretreated glass fiber filterplate (MultiScreen-FC, Millipore), with polyethylenimine 0.1%. The filters were washed two times with 200 μl of washing buffer (50 mM Tris Cl, pH=7.4) and then 25 μl of Ecoscint H liquid scintillation cocktail were added. Microplates were allowed to set for several hours and then quantified by liquid scintillation spectrophotometry (1450 Microbeta, Wallac). Nonspecific binding was determined with 1 μM haloperidol.
With `CCCN1Cc2c(-c3ccccc3)nnn2[C@@H]2CN(Cc3ccccc3)C[C@H]21` (racemic) [Example 9, (rac) (5a,8a-trans)-7-benzyl-3-phenyl-5-propyl-5,5a,6,7,8,8a-hexahydro-4H-pyrrolo[3,4-e][1,2,3]triazolo[1,5-a]pyrazine hydrochloride], the Ki is less than 100 nM. With `c1ccc(CN2C[C@@H]3NCc4c(-c5ccccc5)nnn4[C@@H]3C2)cc1` (racemic) [Example 3, (rac) (5a,8a-cis)-7-benzyl-3-phenyl-5,5a,6,7,8,8a-hexahydro-4H-pyrrolo[3,4-e][1,2,3]triazolo[1,5-a]pyrazine], the Ki lay in the range of 100 to 500 nM. In the case of `CS(=O)(=O)N1Cc2c(-c3ccccc3)nnn2[C@@H]2CN(Cc3ccccc3)C[C@H]21` (racemic) [Example 20, (rac) (5a,8a-trans)-7-benzyl-5-(methylsulfonyl)-3-phenyl-5,5a,6,7,8,8a-hexahydro-4H-pyrrolo[3,4-e][1,2,3]triazolo[1,5-a]pyrazine hydrochloride] it was 100 to 500 nM; in that of `O=C1N[C@H]2CNC[C@H]2n2nnc(-c3ccccc3)c21` (racemic) [Example 36, (rac)-(5a,8a-cis)-3-phenyl-5,5a,6,7,8,8a-hexahydro-4H-pyrrolo[3,4-e][1,2,3]triazolo[1,5-a]pyrazin-4-one hydrochloride], more than 500 nM. `Fc1ccccc1-c1nnn2c1CN[C@@H]1CN(Cc3ccccc3)C[C@H]12` [Example 29, (5aR,8aR)-7-benzyl-3-(2-fluorophenyl)-5,5a,6,7,8,8a-hexahydro-4H-pyrrolo[3,4-e][1,2,3]triazolo[1,5-a]pyrazine hydrochloride] came in with a Ki of less than 100 nM. Regarding `c1ccc(CN2C[C@@H]3[C@@H](C2)NCc2c(-c4ccccc4)nnn23)cc1` (racemic) [Example 1, (rac) (5a,8a-trans)-7-benzyl-3-phenyl-5,5a,6,7,8,8a-hexahydro-4H-pyrrolo[3,4-e][1,2,3]triazolo[1,5-a]pyrazine, hydrochloride], the Ki is less than 100 nM. In the case of `c1ccc(-c2nnn3c2CN[C@@H]2CN(C4CCOCC4)C[C@H]23)cc1` (racemic) [Example 19, (rac) (5a,8a-trans)-3-phenyl-7-(tetrahydro-2H-pyran-4-yl)-5,5a,6,7,8,8a-hexahydro-4H-pyrrolo[3,4-e][1,2,3]triazolo[1,5-a]pyrazine hydrochloride] it was more than 500 nM; in that of `Clc1ccc(CN2C[C@@H]3[C@@H](C2)NCc2c(-c4ccccc4)nnn23)cc1` [Example 25, (5aR,8aR)-7-(4-chlorobenzyl)-3-phenyl-5,5a,6,7,8,8a-hexahydro-4H-pyrrolo[3,4-e][1,2,3]triazolo[1,5-a]pyrazine hydrochloride], less than 100 nM. In turn, `CCC(=O)N1CCc2c(-c3ccccc3)nnn2[C@@H]2CN(Cc3ccccc3)C[C@@H]21` (racemic) [Example 33, (rac) 1-((6a,9a-cis)-8-benzyl-3-phenyl-4,5,7,8,9,9a-hexahydropyrrolo[3,4-b][1,2,3]triazolo[1,5-d][1,4]diazepin-6(6aH)-yl)propan-1-one hydrochloride] yielded a Ki of 100 to 500 nM. Next, `FC(F)(F)c1ccc(CN2C[C@@H]3[C@@H](C2)NCc2c(-c4ccccc4)nnn23)cc1` [Example 26, (5aR,8aR)-3-phenyl-7-(4-(trifluoromethyl)benzyl)-5,5a,6,7,8,8a-hexahydro-4H-pyrrolo[3,4-e][1,2,3]triazolo[1,5-a]pyrazine hydrochloride]: 100 to 500 nM; `c1ccc(CN2C[C@H]3NCCc4c(-c5ccccc5)nnn4[C@H]3C2)cc1` [Example 34, (6aR,9aS)-8-benzyl-3-phenyl-4,5,6,6a,7,8,9,9a-octahydropyrrolo[3,4-b][1,2,3]triazolo[1,5-d][1,4]diazepine hydrochloride]: 100 to 500 nM. For the compound `c1ccc(CN2C[C@@H]3NCCc4c(-c5ccccc5)nnn4[C@@H]3C2)cc1` (racemic) [Example 30, (rac) (6a,9a-cis)-8-benzyl-3-phenyl-4,5,6,6a,7,8,9,9a-octahydropyrrolo[3,4-b][1,2,3]triazolo[1,5-d][1,4]diazepine hydrochloride], the Ki is less than 100 nM.

`CCCN1Cc2c(-c3ccccc3)nnn2[C@@H]2CN(Cc3ccccc3)C[C@@H]21` (racemic) [Example 13, (rac) (5a,8a-cis)-7-benzyl-3-phenyl-5-propyl-5,5a,6,7,8,8a-hexahydro-4H-pyrrolo[3,4-e][1,2,3]triazolo[1,5-a]pyrazine] registered a Ki of 100 to 500 nM. Next, `CN1C(=O)c2c(-c3ccccc3)nnn2[C@@H]2CN(Cc3ccccc3)C[C@@H]21` (racemic) [Example 37, (rac)-(5a,8a-cis)-7-benzyl-5-methyl-3-phenyl-5,5a,6,7,8,8a-hexahydro-4H-pyrrolo[3,4-e][1,2,3]triazolo[1,5-a]pyrazin-4-one]: more than 500 nM; `c1ccc(-c2nnn3c2CN[C@@H]2CN(CC4CCOCC4)C[C@H]23)cc1` [Example 27, (5aR,8aR)-3-phenyl-7-((tetrahydro-2H-pyran-4-yl)methyl)-5,5a,6,7,8,8a-hexahydro-4H-pyrrolo[3,4-e][1,2,3]triazolo[1,5-a]pyrazine hydrochloride]: 100 to 500 nM. Compound `c1ccc(CN2C[C@@H]3[C@H](C2)N(CC2CC2)CCc2c(-c4ccccc4)nnn23)cc1` (racemic) [Example 32, (rac) (6a,9a-cis)-8-benzyl-6-(cyclopropylmethyl)-3-phenyl-4,5,6,6a,7,8,9,9a-octahydropyrrolo[3,4-b][1,2,3]triazolo[1,5-d][1,4]diazepine hydrochloride] came in with a Ki of less than 100 nM.

Consider `c1ccc(CN2C[C@@H]3NCc4c(-c5ccccc5)nnn4[C@@H]3C2)cc1` [Example 15, (5aS,8aR)-7-benzyl-3-phenyl-5,5a,6,7,8,8a-hexahydro-4H-pyrrolo[3,4-e][1,2,3]triazolo[1,5-a]pyrazine], for which the Ki is less than 100 nM. Next, `Fc1ccc(CN2C[C@@H]3[C@@H](C2)NCc2c(-c4ccccc4)nnn23)cc1` [Example 24, (5aR,8aR)-7-(4-fluorobenzyl)-3-phenyl-5,5a,6,7,8,8a-hexahydro-4H-pyrrolo[3,4-e][1,2,3]triazolo[1,5-a]pyrazine hydrochloride]: less than 100 nM; `CN1Cc2c(-c3ccccc3)nnn2[C@@H]2CN(Cc3ccccc3)C[C@@H]21` (racemic) [Example 12, (rac) (5a,8a-cis)-7-benzyl-5-methyl-3-phenyl-5,5a,6,7,8,8a-hexahydro-4H-pyrrolo[3,4-e][1,2,3]triazolo[1,5-a]pyrazine]: less than 100 nM.

Take `c1ccc(CN2C[C@@H]3NCCc4c(-c5ccccc5)nnn4[C@@H]3C2)cc1` [Example 35, (6aS,9aR)-8-benzyl-3-phenyl-4,5,6,6a,7,8,9,9a-octahydropyrrolo[3,4-b][1,2,3]triazolo [1,5-d][1,4]-diazepine hydrochloride]: the Ki was less than 100 nM. Next, `CC(C)(C)OC(=O)N1Cc2c(-c3ccccc3)nnn2[C@@H]2CN(Cc3ccc(F)cc3)C[C@H]21` (racemic) [Example 7, (rac)-(5a,8a-trans)-tert-butyl-7-(4-fluorobenzyl)-3-phenyl-6,7,8,8a-tetrahydro-4H-pyrrolo[3,4-e][1,2,3]triazolo[1,5-a]pyrazine-5(5aH)-carboxylate]: more than 500 nM; `O=C1N[C@H]2CN(Cc3ccccc3)C[C@H]2n2nnc(-c3ccccc3)c21` (racemic) [Example 2, (rac)-(5a,8a-cis)-7-benzyl-3-phenyl-5,5a,6,7,8,8a-hexahydro-4H-pyrrolo[3,4-e][1,2,3]triazolo[1,5-a]pyrazin-4-one]: more than 500 nM; `CCCN1Cc2c(-c3ccccc3)nnn2[C@@H]2CNC[C@H]21` (racemic) [Example 10, (rac) (5a,8a-trans)-3-phenyl-5-propyl-5,5a,6,7,8,8a-hexahydro-4H-pyrrolo[3,4-e][1,2,3]triazolo[1,5-a]pyrazine hydrochloride]: more than 500 nM. Turning to `CCCN1CCc2c(-c3ccccc3)nnn2[C@@H]2CN(Cc3ccccc3)C[C@@H]21` (racemic) [Example 31, (rac) (6a,9a-cis)-8-benzyl-3-phenyl-6-propyl-4,5,6,6a,7,8,9,9a-octahydropyrrolo[3,4-b][1,2,3]triazolo[1,5-d][1,4]diazepine hydrochloride], the Ki is less than 100 nM. The compound `CC(=O)N1Cc2c(-c3ccccc3)nnn2[C@@H]2CN(Cc3ccccc3)C[C@H]21` (racemic) [Example 4, (rac) 1-((5a,8a-trans)-7-benzyl-3-phenyl-6,7,8,8a-tetrahydro-4H-pyrrolo[3,4-e][1,2,3]triazolo[1,5-a]pyrazin-5(5aH)-yl)ethanone hydrochloride] displayed a Ki of 100 to 500 nM.

Compound `c1ccc(CN2C[C@@H]3NCc4c(-c5ccccc5)nnn4[C@H]3C2)cc1` [Example 21, (5aS,8aS)-7-benzyl-3-phenyl-5,5a,6,7,8,8a-hexahydro-4H-pyrrolo[3,4-e][1,2,3]triazolo[1,5-a]pyrazine hydrochloride] had a Ki of more than 500 nM.
